{"source": "paper PMC11802822", "about": "“Comprehensive safety and toxicity analysis of 2,2’-Bipyridine derivatives in combating MRSA biofilm formation and persistence” (Frontiers in Cellular and Infection Microbiology, 2025)", "key": {"MTCC 737 [1]": {"system": "MTCC 737", "assay": "Biofilm imaging by confocal laser scanning microscopy (SYTO 9/PI)", "conditions": "derivatives 100 µg/ml, 24 h"}, "MTCC 737 [2]": {"system": "MTCC 737", "assay": "Transmission electron microscopy", "conditions": "S. aureus MTCC 737; 100 µg/ml, 12 h"}, "MRSA 831 [3]": {"system": "MRSA 831", "assay": "Transmission electron microscopy", "conditions": "100 µg/ml, 12 h"}, "S. aureus (MTCC737) [4]": {"system": "S. aureus (MTCC737)", "assay": "Broth microdilution MIC", "conditions": "Staphylococcus aureus, MTCC737, 18 h, read-out: Minimum inhibitory concentration"}, "red blood cells": {"system": "red blood cells", "conditions": "ref Chen et al., 2011; Papalia et al., 2021; cited from earlier work"}, "MRSA 831 [5]": {"system": "MRSA 831", "assay": "Broth microdilution MIC", "conditions": "Staphylococcus aureus, MRSA, 18 h, read-out: Minimum inhibitory concentration"}, "MRSA 831 [6]": {"system": "MRSA 831", "assay": "Biofilm imaging by confocal laser scanning microscopy (SYTO 9/PI)", "assay_type": "cell-based, methicillin-resistant S. aureus", "conditions": "derivatives 100 µg/ml, 24 h", "excerpt": "Untreated wells were used as a control. […] Using SYTO 9 and PI dyes. […] Two independent experiments were done in triplicate."}, "S. aureus (MTCC737) [7]": {"system": "S. aureus (MTCC737)", "assay": "Agar well diffusion", "conditions": "Staphylococcus aureus, MTCC737"}, "MTCC 737 [8]": {"system": "MTCC 737", "assay": "Neutropenic thigh infection model in mice", "assay_type": "in vivo, Staphylococcus aureus", "conditions": "neutropenic BALB/c mice, MTCC 737 10^6 CFU/ml, oral 30 mg/kg, 48 h, vs untreated group"}, "MRSA 831 (MRSA)": {"system": "MRSA 831 (MRSA)", "assay": "Agar well diffusion", "conditions": "Staphylococcus aureus, MRSA"}, "MTCC 737 persister cells": {"system": "MTCC 737 persister cells", "assay": "Persister killing assay", "assay_type": "cell-based, Staphylococcus aureus", "conditions": "S. aureus persisters", "method": "To evaluate the persister-killing activity of 2,2’-Bipy derivatives, MTCC 737 and MRSA 831 cells were grown overnight to the stationary phase at 37°C ([Kim et al., 2018b]). […] The bacterial densities of persisters were recorded at OD600 at hourly intervals from 0 to 6 h."}, "MRSA 831 [9]": {"system": "MRSA 831", "assay": "Neutropenic thigh infection model in mice", "conditions": "neutropenic BALB/c mice, MRSA 831 10^8 CFU/ml, oral 30 mg/kg, after 2 h and 24 h, vs untreated control"}}, "data": [{"compound": "CN[C@H](CC(C)C)C(=O)N[C@H]1C(=O)N[C@@H](CC(N)=O)C(=O)N[C@H]2C(=O)N[C@H]3C(=O)N[C@H](C(=O)N[C@H](C(=O)O)c4cc(O)cc(O)c4-c4cc3ccc4O)[C@H](O)c3ccc(c(Cl)c3)Oc3cc2cc(c3O[C@@H]2O[C@H](CO)[C@@H](O)[C@H](O)[C@H]2O[C@H]2C[C@](C)(N)[C@H](O)[C@H](C)O2)Oc2ccc(cc2Cl)[C@H]1O", "note": "[Vancomycin, reference compound]", "values": [{"measurement": "Biofilm disruption (CLSM)", "setting": "MTCC 737 [1]", "value": "effective biofilm disruption and severe cell damage"}, {"measurement": "Cell morphology (TEM)", "setting": "MTCC 737 [2]", "value": "distorted morphology"}, {"measurement": "Cell morphology (TEM)", "setting": "MRSA 831 [3]", "value": "distorted morphology"}, {"measurement": "MIC", "setting": "S. aureus (MTCC737) [4]", "value": 6.25, "unit": "µg/mL"}, {"measurement": "Concentration up to which non-hemolytic", "setting": "red blood cells", "value": "up to 32 µg/ml"}, {"measurement": "MIC", "setting": "MRSA 831 [5]", "value": 6.25, "unit": "µg/mL"}, {"measurement": "Biofilm disruption (CLSM)", "setting": "MRSA 831 [6]", "value": "effective biofilm disruption and severe cell damage"}, {"measurement": "zone of inhibition at 50 µg/mL", "setting": "S. aureus (MTCC737) [7]", "value": 14, "unit": "mm"}, {"measurement": "Reduction in the bacterial load in thigh tissue", "setting": "MTCC 737 [8]", "value": "approximately 1.9 log10"}, {"measurement": "zone of inhibition at 50 µg/mL", "setting": "MRSA 831 (MRSA)", "value": 12, "unit": "mm"}, {"measurement": "Concentration showing similar activity on persister cell counts", "setting": "MTCC 737 persister cells", "value": 100, "unit": "µg/mL"}, {"measurement": "Reduction in the bacterial load in thigh tissue", "setting": "MRSA 831 [9]", "value": "approximately 1.9 log10"}]}]}
